One test deals with IL8. Briefly: inhibitors of NFkB activation in CF airway cells, SAR follow-up, KKLEB cells, panel, IL8 HTRF, NFkB-GFP (AID 651592).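 Further: immortalized cystic fibrosis airway epithelial KKLEB cells with an NF-kB GFP reporter.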 To be noted: PAF/TNFa-induced NFkB-GFP / IL8 HTRF, mean of runs, mean IC50 across panel replicates. For orientation: In TR-FRET formats the signal depends on donor and acceptor labels being close together.
Test [1] deals with Interleukin-8 (Homo sapiens) (UniProt P10145). The test is described as above. To be noted: PAF/TNFa-induced NFkB-GFP / IL8 HTRF.
Experiment in test [2]: as above
The conditions noted are these: PAF/TNFa-induced NFkB-GFP / IL8 HTRF, CF-PAF assay.

Where [3] appears, read: mean of runs, mean IC50 across panel replicates.

Chain of Interleukin-8 (Homo sapiens) (P10145 whole entry, looked up): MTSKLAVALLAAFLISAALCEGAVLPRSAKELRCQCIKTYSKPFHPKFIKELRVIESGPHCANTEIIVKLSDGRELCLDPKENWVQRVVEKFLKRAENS

The term IC50 denotes the midpoint of a concentration-inhibition curve. High values mean weaker potency in that assay, low ones greater potency in that assay. Regarding `O=C(Nc1ccc(N2CCN(C(=O)c3ccccc3F)CC2)cc1)c1ccncc1`, the IC50 in the test with IL8 (PAF-induced) is 55.8 µM; in the test on IL8 (TNFa-induced) it was more than 66 µM; in test [1] (IL8, PAF-induced, run 1), more than 66 µM; in test [1] (IL8, PAF-induced, run 2), more than 66 µM; in test [1] (IL8, PAF-induced, run 3) it was 55.8 µM; in test [1] (IL8, PAF-induced, run 4), more than 66 µM. The IC50 was more than 66 µM in test [1] (IL8, PAF-induced, run 5); more than 66 µM in test [1] (IL8, PAF-induced, run 6); more than 66 µM in test [1] (IL8, TNFa-induced, run 1); more than 66 µM in test [1] (IL8, TNFa-induced, run 2); more than 66 µM in test [1] (IL8, TNFa-induced, run 3); more than 66 µM in test [1] (IL8, TNFa-induced, run 4). In addition, the IC50 in test [1] (IL8, TNFa-induced, run 5) is more than 66 µM; in test [1] (IL8, TNFa-induced, run 6) it was more than 66 µM; in test [2] (setting [3]), 31.8 µM; in test [2] (run 1) it was 15.6 µM; in test [2] (run 2), 16.3 µM; in test [2] (run 3) it was 17.9 µM. The IC50 in test [2] (run 4) was more than 66 µM; in test [2] (run 5), more than 66 µM; in test [2] (run 6), 8.71 µM.

Turning to `O=C(Nc1ccc(N2CCN(C(=O)c3ccc(F)cc3)CC2)cc1)c1ccccc1`, the 50% inhibitory concentration (IC50) with IL8 (PAF-induced) is more than 66 µM; in the test on IL8 (TNFa-induced) it was more than 66 µM; in test [1] (IL8, PAF-induced, run 1), more than 66 µM; in test [1] (IL8, PAF-induced, run 2), more than 66 µM; in test [1] (IL8, PAF-induced, run 3), more than 66 µM; in test [1] (IL8, PAF-induced, run 4), more than 66 µM. For the same compound, the concentration for half-maximal inhibition (IC50) in test [1] (IL8, PAF-induced, run 5) was more than 66 µM; in test [1] (IL8, PAF-induced, run 6) it was more than 66 µM; in test [1] (IL8, TNFa-induced, run 1), more than 66 µM; in test [1] (IL8, TNFa-induced, run 2) it was more than 66 µM; in test [1] (IL8, TNFa-induced, run 3) it was more than 66 µM; in test [1] (IL8, TNFa-induced, run 4) it was more than 66 µM. Moreover, the IC50 in test [1] (IL8, TNFa-induced, run 5) was more than 66 µM; in test [1] (IL8, TNFa-induced, run 6), more than 66 µM; in test [2] (setting [3]), more than 66 µM; in test [2] (run 1), more than 66 µM; in test [2] (run 2), more than 66 µM; in test [2] (run 3), more than 66 µM. Besides, the IC50 in test [2] (run 4), in test [2] (run 5) and in test [2] (run 6) was more than 66 µM each time.

With `CCOc1ccc(NCc2cc3c(C)nn(-c4ccccc4)c3[nH]c2=O)cc1`, the IC50 is 10.5 µM in the test with IL8 (PAF-induced); more than 66 µM in the test with IL8 (TNFa-induced); 10.3 µM in test [1] (IL8, PAF-induced, run 1); 13.9 µM in test [1] (IL8, PAF-induced, run 2); 14.1 µM in test [1] (IL8, PAF-induced, run 3); 7.93 µM in test [1] (IL8, PAF-induced, run 4). Moreover, the IC50 in test [1] (IL8, PAF-induced, run 5) was 8.32 µM; in test [1] (IL8, PAF-induced, run 6), 8.5 µM; in test [1] (IL8, TNFa-induced, run 1) it was more than 66 µM; in test [1] (IL8, TNFa-induced, run 2) it was more than 66 µM; in test [1] (IL8, TNFa-induced, run 3), more than 66 µM; in test [1] (IL8, TNFa-induced, run 4) it was more than 66 µM. Besides, the 50% inhibitory concentration (IC50) in test [1] (IL8, TNFa-induced, run 5) was more than 66 µM; in test [1] (IL8, TNFa-induced, run 6), more than 66 µM; in test [2] (setting [3]), 12.6 µM; in test [2] (run 1), 13 µM; in test [2] (run 2), 15.9 µM; in test [2] (run 3), 16.2 µM. The IC50 in test [2] (run 4) was 9.13 µM; in test [2] (run 5) it was 10.5 µM; in test [2] (run 6) it was 11.2 µM.

With `CCOc1ccc(NCc2cc3c(C(C)(C)C)nn(-c4ccc(Cl)cc4)c3[nH]c2=O)cc1`, the IC50 is 0.228 µM with IL8 (PAF-induced); more than 66 µM in the test with IL8 (TNFa-induced); 0.216 µM in test [1] (IL8, PAF-induced, run 1); 0.248 µM in test [1] (IL8, PAF-induced, run 2); 0.277 µM in test [1] (IL8, PAF-induced, run 3); 0.149 µM in test [1] (IL8, PAF-induced, run 4). For the same compound, the IC50 in test [1] (IL8, PAF-induced, run 5) is 0.236 µM; in test [1] (IL8, PAF-induced, run 6), 0.246 µM; in test [1] (IL8, TNFa-induced, run 1) it was more than 66 µM; in test [1] (IL8, TNFa-induced, run 2), more than 66 µM; in test [1] (IL8, TNFa-induced, run 3), more than 66 µM; in test [1] (IL8, TNFa-induced, run 4), more than 66 µM. The IC50 in test [1] (IL8, TNFa-induced, run 5) is more than 66 µM; in test [1] (IL8, TNFa-induced, run 6), more than 66 µM; in test [2] (setting [3]), 17.9 µM; in test [2] (run 1) it was 9.61 µM; in test [2] (run 2), 10.1 µM; in test [2] (run 3), 10.2 µM. Also, the 50% inhibitory concentration (IC50) in test [2] (run 4) was more than 66 µM; in test [2] (run 5) it was 0.52 µM; in test [2] (run 6), 10.8 µM.

Source of the values: PubChem BioAssay AID651592 (Sanford-Burnham Center for Chemical Genomics, 2012).
